Source: ChEMBL document CHEMBL5696441 (Nat Chem Biol, 2011)

Columns and labels:
[1] = tested on: Hepatocyte growth factor receptor (Homo sapiens), P08581 [Y1235D]; assay: Inhibition of MET Y1235D mutant (unknown origin) assessed as remaining activity at 1 uM by Kinome scan method relative to control
[2] = tested on: RAF proto-oncogene serine/threonine-protein kinase (Homo sapiens), P04049 [Y340D,Y341D]; assay: Inhibition of human RAF1 Y340D/Y341D double mutant assessed as residual activity at 1 uM using MEK1-K97M as substrate in presence of 33P-ATP by ProQinase assay relative to control
[3] = target: Tyrosine-protein kinase Fes/Fps (Homo sapiens) (UniProt P07332); assay: Inhibition of FES (unknown origin) assessed as remaining activity at 1 uM by Kinome scan method relative to control
[4] = target: Ribosomal protein S6 kinase alpha-1 (Homo sapiens) (UniProt Q15418); assay: Inhibition of human RPS6KA1 assessed as residual activity at 1 uM using RBER-CHKtide as substrate in presence of 33P-ATP by ProQinase assay relative to control
[5] = target: Serine/threonine-protein kinase MRCK beta (Homo sapiens) (UniProt Q9Y5S2); assay: Inhibition of human CDC42BPB assessed as residual activity at 1 uM using RB-S6P as substrate in presence of 33P-ATP by ProQinase assay relative to control
[6] = target: Interleukin-1 receptor-associated kinase 1 (Homo sapiens) (UniProt P51617); assay: Inhibition of human IRAK1 assessed as residual activity at 1 uM using RB-CTF as substrate in presence of 33P-ATP by ProQinase assay relative to control
[7] = target: Serine/threonine-protein kinase Sgk3 (Homo sapiens) (UniProt Q96BR1); assay: Inhibition of human SGK3 assessed as residual activity at 1 uM using RBER-GSK3(14-27) as substrate in presence of 33P-ATP by ProQinase assay relative to control
[8] = tested on: Phosphatidylinositol 4,5-bisphosphate 3-kinase catalytic subunit alpha isoform (Homo sapiens), P42336 [E542K]; assay: Inhibition of PIK3CA E542K mutant (unknown origin) assessed as remaining activity at 1 uM by Kinome scan method relative to control
[9] = target: T1, Serine/threonine-protein kinase Nek1 (Homo sapiens) (UniProt Q96PY6); assay: Inhibition of human NEK1 assessed as residual activity at 1 uM using RBER-CHKtide as substrate in presence of 33P-ATP by ProQinase assay relative to control
T1 sequence (whole entry): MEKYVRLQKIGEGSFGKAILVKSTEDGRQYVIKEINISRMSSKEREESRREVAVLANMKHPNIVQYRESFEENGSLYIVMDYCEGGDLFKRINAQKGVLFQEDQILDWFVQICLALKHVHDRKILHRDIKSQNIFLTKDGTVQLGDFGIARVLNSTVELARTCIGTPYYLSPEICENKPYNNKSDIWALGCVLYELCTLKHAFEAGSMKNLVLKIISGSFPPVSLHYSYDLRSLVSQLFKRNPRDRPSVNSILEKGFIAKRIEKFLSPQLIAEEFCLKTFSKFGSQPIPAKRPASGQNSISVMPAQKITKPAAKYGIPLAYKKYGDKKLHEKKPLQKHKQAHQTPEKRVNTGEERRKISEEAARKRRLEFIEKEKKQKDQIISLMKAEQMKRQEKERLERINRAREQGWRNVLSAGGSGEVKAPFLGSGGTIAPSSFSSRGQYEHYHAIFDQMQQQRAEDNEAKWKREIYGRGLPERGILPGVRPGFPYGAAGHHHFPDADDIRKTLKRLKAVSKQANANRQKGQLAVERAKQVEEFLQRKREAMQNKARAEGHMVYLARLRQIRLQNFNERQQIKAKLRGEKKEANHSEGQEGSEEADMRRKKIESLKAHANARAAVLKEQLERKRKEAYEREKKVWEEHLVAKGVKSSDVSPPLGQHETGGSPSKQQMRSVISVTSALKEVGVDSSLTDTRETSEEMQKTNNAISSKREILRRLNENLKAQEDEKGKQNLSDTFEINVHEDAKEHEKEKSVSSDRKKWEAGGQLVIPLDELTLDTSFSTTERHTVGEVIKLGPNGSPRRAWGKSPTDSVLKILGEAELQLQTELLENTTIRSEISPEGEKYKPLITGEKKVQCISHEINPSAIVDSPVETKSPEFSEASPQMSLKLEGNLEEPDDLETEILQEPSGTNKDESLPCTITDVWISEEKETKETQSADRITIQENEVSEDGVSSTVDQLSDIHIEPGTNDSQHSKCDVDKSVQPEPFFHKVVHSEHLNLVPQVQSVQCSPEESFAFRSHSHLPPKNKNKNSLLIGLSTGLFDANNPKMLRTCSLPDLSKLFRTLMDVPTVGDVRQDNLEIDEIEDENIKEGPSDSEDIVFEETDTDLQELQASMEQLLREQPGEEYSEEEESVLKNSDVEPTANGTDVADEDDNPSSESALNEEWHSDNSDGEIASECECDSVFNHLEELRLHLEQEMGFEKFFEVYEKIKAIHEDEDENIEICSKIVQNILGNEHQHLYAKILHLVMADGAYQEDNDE

[10] = target: Glycogen synthase kinase-3 beta (Homo sapiens) (UniProt P49841); assay: Inhibition of human GSK3beta assessed as residual activity at 1 uM using RBER-CHKtide as substrate in presence of 33P-ATP by ProQinase assay relative to control
[11] = target: NUAK family SNF1-like kinase 1 (Homo sapiens) (UniProt O60285); assay: Inhibition of human ARK5 assessed as residual activity at 1 uM using RBER-CHKtide as substrate in presence of 33P-ATP by ProQinase assay relative to control
[12] = target: Serine/threonine-protein kinase Chk2 (Homo sapiens) (UniProt O96017); assay: Inhibition of CHEK2 (unknown origin) assessed as remaining activity at 1 uM by Kinome scan method relative to control
[13] = target: Mitogen-activated protein kinase kinase kinase 2 (Homo sapiens) (UniProt Q9Y2U5); assay: Inhibition of human MEKK2 assessed as residual activity at 1 uM using casein as substrate in presence of 33P-ATP by ProQinase assay relative to control
Mitogen-activated protein kinase kinase kinase 2 (Homo sapiens), sequence (Q9Y2U5 whole entry): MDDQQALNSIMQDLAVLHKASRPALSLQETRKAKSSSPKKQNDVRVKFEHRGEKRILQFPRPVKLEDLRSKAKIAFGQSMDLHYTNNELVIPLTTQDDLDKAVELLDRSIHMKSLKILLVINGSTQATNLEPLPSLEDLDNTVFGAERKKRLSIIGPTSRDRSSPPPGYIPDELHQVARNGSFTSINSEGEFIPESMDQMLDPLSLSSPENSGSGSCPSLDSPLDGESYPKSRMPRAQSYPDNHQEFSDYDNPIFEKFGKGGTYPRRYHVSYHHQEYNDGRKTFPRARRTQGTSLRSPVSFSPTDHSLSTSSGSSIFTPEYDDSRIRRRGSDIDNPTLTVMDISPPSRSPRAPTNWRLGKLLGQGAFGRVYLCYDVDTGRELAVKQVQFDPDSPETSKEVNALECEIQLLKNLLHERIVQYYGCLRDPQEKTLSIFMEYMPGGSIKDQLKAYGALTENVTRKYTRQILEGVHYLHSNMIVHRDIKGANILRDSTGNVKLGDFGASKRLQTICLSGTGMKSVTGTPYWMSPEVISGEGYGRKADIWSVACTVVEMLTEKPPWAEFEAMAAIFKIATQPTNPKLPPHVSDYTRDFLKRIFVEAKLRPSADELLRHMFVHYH

Serine/threonine-protein kinase Sgk3 (Homo sapiens), sequence (Q96BR1 whole entry, canonical isoform): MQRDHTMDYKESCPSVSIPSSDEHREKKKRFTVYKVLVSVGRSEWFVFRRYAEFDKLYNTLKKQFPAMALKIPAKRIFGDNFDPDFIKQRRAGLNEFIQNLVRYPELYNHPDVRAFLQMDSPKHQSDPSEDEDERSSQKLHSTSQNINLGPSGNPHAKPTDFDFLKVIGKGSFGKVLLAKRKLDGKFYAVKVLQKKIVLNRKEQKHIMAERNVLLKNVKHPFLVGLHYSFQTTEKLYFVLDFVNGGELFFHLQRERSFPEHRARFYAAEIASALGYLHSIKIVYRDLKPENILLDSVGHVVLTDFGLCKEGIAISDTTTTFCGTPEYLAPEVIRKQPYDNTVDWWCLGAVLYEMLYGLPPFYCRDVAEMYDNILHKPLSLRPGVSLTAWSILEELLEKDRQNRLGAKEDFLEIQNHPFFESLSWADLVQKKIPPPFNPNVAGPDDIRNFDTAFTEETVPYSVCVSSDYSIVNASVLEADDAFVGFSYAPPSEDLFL
Ribosomal protein S6 kinase alpha-1 (Homo sapiens), sequence (Q15418 whole entry): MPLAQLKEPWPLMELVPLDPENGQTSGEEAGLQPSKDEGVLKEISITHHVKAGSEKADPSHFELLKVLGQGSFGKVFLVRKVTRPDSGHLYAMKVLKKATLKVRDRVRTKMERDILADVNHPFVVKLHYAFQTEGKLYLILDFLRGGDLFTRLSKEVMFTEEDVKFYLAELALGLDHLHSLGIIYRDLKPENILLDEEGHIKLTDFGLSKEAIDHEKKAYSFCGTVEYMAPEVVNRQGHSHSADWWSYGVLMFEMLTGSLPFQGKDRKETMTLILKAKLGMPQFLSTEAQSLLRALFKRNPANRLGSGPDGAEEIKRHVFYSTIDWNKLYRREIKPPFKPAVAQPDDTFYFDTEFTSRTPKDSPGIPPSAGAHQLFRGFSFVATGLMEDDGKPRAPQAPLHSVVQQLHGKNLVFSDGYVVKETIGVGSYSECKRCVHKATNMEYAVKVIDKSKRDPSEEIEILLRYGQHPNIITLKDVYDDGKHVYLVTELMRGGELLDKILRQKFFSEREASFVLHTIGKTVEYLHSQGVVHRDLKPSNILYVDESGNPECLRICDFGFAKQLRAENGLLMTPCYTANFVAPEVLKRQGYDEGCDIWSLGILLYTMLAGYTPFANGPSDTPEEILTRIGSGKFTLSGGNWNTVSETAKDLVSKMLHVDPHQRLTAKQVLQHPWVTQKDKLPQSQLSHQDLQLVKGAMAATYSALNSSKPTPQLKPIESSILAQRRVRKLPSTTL
Tyrosine-protein kinase Fes/Fps (Homo sapiens), sequence (P07332 whole entry): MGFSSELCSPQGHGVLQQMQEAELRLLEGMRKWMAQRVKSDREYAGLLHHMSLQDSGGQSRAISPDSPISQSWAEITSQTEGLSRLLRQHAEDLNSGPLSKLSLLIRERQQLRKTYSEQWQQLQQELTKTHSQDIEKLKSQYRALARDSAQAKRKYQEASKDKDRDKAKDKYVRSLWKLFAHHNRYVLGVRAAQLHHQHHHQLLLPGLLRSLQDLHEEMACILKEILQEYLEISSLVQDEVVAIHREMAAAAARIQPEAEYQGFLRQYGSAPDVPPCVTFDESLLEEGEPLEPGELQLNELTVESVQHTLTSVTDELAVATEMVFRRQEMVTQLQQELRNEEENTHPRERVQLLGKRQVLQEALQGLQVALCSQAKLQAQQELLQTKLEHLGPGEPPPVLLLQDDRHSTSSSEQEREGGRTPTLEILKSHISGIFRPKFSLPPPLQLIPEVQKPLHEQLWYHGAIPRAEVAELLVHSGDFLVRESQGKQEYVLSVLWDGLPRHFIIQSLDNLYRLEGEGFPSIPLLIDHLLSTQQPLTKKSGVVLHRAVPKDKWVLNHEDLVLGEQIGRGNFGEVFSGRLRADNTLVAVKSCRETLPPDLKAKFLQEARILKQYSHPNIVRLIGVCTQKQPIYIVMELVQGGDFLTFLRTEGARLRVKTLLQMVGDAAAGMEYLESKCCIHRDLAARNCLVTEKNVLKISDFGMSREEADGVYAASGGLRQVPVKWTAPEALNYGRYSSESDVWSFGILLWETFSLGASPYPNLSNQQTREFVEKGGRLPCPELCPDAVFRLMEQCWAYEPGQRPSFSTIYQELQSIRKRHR
NUAK family SNF1-like kinase 1 (Homo sapiens), sequence (O60285 whole entry): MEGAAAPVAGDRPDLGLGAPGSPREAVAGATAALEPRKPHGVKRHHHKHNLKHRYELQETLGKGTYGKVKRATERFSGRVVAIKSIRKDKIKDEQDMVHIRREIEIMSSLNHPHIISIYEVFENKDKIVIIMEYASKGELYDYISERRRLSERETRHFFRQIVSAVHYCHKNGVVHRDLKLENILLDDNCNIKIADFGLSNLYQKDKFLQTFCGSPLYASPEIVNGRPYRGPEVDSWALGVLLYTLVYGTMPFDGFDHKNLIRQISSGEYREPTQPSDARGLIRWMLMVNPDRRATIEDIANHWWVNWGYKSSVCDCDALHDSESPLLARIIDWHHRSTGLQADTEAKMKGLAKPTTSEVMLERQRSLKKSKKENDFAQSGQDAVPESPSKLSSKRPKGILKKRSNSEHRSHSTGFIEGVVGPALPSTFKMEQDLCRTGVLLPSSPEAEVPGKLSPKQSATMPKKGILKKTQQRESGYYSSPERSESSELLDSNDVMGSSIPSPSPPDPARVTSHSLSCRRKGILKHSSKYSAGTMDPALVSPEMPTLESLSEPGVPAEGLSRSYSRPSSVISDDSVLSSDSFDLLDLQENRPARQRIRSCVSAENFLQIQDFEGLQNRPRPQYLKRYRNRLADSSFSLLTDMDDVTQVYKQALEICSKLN
Serine/threonine-protein kinase MRCK beta (Homo sapiens), sequence (Q9Y5S2 whole entry): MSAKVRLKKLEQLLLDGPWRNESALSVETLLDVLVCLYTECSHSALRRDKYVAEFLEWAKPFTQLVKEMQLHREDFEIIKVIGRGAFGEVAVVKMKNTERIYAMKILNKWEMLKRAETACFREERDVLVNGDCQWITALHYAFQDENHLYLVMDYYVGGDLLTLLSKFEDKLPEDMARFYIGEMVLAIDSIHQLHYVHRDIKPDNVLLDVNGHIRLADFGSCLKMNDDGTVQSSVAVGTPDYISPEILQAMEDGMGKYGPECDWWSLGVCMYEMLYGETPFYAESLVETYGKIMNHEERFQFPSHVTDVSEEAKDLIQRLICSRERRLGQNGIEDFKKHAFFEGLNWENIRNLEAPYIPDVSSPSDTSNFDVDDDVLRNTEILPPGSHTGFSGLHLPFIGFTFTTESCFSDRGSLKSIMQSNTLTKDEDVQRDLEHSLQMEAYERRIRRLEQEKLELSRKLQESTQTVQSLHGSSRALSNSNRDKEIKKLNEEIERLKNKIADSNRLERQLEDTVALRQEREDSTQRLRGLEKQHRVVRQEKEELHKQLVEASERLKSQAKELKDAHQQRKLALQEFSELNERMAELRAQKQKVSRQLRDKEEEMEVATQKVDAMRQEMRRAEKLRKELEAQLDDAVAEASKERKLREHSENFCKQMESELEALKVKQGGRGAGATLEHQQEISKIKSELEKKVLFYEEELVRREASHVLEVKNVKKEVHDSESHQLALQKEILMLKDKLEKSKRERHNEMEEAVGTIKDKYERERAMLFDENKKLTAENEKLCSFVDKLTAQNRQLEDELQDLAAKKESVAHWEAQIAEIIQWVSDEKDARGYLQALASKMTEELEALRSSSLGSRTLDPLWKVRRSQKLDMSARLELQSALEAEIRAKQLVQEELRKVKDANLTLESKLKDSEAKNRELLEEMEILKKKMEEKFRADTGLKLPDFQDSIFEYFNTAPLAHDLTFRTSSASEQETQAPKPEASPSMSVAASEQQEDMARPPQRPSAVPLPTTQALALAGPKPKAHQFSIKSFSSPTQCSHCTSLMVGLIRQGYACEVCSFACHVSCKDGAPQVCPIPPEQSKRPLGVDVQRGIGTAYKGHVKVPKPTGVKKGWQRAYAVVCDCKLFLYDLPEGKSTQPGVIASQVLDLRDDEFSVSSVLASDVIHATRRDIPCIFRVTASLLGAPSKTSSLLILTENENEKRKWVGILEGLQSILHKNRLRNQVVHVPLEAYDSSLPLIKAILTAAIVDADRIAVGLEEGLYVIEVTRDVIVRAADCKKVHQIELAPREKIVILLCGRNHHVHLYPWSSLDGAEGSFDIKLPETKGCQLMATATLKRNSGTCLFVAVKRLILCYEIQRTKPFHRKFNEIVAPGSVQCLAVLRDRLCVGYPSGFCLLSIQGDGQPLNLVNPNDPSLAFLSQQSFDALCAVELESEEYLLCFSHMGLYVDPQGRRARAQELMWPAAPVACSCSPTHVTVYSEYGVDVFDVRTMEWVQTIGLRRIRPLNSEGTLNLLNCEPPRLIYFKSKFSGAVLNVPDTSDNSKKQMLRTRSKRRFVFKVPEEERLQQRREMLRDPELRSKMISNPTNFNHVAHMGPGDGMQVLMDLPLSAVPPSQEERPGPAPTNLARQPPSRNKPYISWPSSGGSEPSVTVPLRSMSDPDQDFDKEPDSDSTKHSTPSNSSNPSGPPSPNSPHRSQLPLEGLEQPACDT

O=C1c2ccc(Nc3ccc(F)cc3F)cc2CCc2ccc(OC[C@H](O)CO)cc21 [Skepinone-L]
Activity [1]: 97%
Activity [2]: 91%
Activity [3]: 100%
Activity [4]: 89%
Activity [5]: 83%
Activity [6]: 101%
Activity [7]: 102%
Activity [8]: 100%
Activity [9]: 83%
Activity [10]: 97%
Activity [11]: 115%
Activity [12]: 100%
Activity [13]: 89%
